Results: US11524944B2, “2-phenylpyrimidine-4-carboxamides as AHR inhibitors” (Bayer Aktiengesellschaft, priority 2017, dated 2022)
pIC50: −log10 of the molar value.

How the values were obtained:
Human AhR = molecular target: T1, Human AhR (Homo sapiens, UniProt P35869); experiment: Transactivation assay in human cell line (in vitro assay 1): antagonism; format: cell-based; conditions: U87 glioblastoma cells, AHR inducible firefly luciferase reporter (DRE), 150 μM kynurenic acid, 20 hours
T1 construct: host or cells: U87 glioblastoma cells, stably transfected with a DRE firefly luciferase reporter and a constitutive renilla reporter
T1 sequence (P35869 11-848): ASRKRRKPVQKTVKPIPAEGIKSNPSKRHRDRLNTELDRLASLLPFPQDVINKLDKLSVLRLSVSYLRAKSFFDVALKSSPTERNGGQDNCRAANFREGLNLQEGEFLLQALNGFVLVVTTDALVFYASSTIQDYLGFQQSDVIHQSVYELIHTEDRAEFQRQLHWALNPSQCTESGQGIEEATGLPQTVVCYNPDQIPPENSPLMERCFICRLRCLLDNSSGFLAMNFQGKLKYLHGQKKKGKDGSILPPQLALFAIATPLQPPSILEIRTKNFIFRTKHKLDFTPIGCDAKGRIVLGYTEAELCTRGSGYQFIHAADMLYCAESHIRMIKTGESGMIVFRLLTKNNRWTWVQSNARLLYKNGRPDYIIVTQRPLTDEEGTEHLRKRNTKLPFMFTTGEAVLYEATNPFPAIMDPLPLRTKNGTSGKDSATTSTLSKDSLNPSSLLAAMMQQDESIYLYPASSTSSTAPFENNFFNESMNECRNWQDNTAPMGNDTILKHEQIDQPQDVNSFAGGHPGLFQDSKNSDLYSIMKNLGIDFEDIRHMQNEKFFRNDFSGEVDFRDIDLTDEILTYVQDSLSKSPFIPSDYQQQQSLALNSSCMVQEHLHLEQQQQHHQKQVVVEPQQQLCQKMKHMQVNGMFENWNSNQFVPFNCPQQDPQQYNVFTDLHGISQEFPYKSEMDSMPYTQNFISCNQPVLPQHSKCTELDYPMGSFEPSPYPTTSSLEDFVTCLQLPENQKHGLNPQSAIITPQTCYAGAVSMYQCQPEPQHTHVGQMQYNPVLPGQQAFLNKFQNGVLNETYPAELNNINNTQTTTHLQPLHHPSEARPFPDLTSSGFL
Protocol: (§1) Examples were tested in selected biological assays one or more times. When tested more than once, data are reported as either average values or as median values, wherein • the average value, also referred to as the arithmetic mean value, represents the sum of the values obtained divided by the number of times tested, and • the median value represents the middle number of the group of values when ranked in ascending or descending order. If the number of values in the data set is odd, the median is the middle value. If the number of values in the data set is even, the median is the arithmetic mean of the two middle values.
Transactivation Assay in Human Cell Line (In Vitro Assay 1)
(§2) Transactivation assay was carried out in U87 glioblastoma cells (ATCC) endogenously expressing AHR. In addition the cells were stably transfected with an AHR inducible firefly luciferase reporter gene construct that carried AHR-binding sites (DRE) in its promoter and a renilla reporter gene construct with constitutively active promoter. Kynurenic acid is an endogenous AHR activating ligand and was used to prestimulate test cells prior to testing the antagonistic properties of compounds.
In Vitro Assay 1: Antagonism in Human Cell Line
Firefly luciferase and Renilla activity was determined by the DualGlo Luciferase Assay System (Promega, #2920). Renilla activity was used to assess toxic effects of compounds.

Mouse AhR = molecular target: T2, Mouse AhR (Mus musculus, UniProt P30561); experiment: Transactivation assay in mouse cell line (in vitro assay 2): antagonism; format: cell-based; conditions: Hepa 1c1c7 cells, AHR inducible firefly luciferase reporter (DRE), 200 μM kynurenic acid, 20 hours
T2 sequence (P30561 1-848 P471L/N533S/M589L): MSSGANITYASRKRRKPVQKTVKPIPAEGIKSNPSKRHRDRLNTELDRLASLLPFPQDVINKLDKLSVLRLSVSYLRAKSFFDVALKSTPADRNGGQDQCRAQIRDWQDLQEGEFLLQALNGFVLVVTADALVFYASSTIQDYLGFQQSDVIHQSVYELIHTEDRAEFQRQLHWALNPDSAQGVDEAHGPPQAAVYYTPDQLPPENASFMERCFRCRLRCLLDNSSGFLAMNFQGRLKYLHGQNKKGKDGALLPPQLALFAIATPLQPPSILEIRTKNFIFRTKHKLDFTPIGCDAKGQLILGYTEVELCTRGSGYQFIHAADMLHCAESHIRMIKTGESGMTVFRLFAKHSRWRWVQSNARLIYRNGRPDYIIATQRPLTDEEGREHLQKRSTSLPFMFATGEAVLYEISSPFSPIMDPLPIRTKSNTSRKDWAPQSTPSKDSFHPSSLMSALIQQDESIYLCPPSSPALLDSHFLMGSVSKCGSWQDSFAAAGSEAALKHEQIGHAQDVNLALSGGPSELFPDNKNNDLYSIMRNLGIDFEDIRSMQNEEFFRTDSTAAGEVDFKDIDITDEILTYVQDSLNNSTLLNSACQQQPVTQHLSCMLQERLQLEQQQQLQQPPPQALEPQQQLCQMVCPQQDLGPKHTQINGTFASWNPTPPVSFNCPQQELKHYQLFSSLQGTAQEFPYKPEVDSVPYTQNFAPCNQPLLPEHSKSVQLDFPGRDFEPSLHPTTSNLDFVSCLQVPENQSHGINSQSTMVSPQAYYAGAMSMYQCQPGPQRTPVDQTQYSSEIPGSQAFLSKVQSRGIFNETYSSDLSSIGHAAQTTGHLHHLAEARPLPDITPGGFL
Protocol: as §1
Transactivation Assay in Mouse Cell Line (In Vitro Assay 2)
as §2, with “Hepa 1c1c7” for “U87 glioblastoma”, “(ATCC #CRL-2026)” for “(ATCC)”, “its” for “its promoter and a renilla reporter gene construct with constitutively active”
In Vitro Assay 2: Antagonism in Mouse Cell Line
Firefly luciferase activity was determined by the SteadyGlo Luciferase Assay System (Promega, #E2550).

pIC50 (Human AhR)	pIC50 (Mouse AhR)	SMILES
8.23	7.88	C[C@H](CO)NC(=O)c1cc(-c2ccc(Cl)cc2)nc(-c2cccc(F)c2)n1 [Example 2, 6-(4-Chlorophenyl)-2-(3-fluorophenyl)-N-[(2R)-1-hydroxypropan-2-yl]pyrimidine-4-carboxamide]
6.19	6.27	C[C@@H](CO)NC(=O)c1cc(-c2ccc(Cl)cc2)nc(-c2ccc(Cl)cc2)n1 [Example 3, 2,6-Bis(4-chlorophenyl)-N-[(2S)-1-hydroxypropan-2-yl]pyrimidine-4-carboxamide]
8.77	8.47	C[C@@H](CO)NC(=O)c1cc(-c2ccc(Cl)cc2)nc(-c2cccc(F)c2)n1 [Example 4, 6-(4-Chlorophenyl)-2-(3-fluorophenyl)-N-[(2S)-1-hydroxypropan-2-yl]pyrimidine-4-carboxamide]
8.90	8.89	C[C@@H](CO)NC(=O)c1cc(-c2ccc(OC(F)(F)F)cc2)nc(-c2cccc(F)c2)n1 [Example 5, 2-(3-Fluorophenyl)-N-[(2S)-1-hydroxypropan-2-yl]-6-[4-(trifluoromethoxy)phenyl]pyrimidine-4-carboxamide]
7.91	7.75	C[C@H](CO)NC(=O)c1cc(-c2ccc(OC(F)(F)F)cc2)nc(-c2cccc(F)c2)n1 [Example 6, 2-(3-Fluorophenyl)-N-[(2R)-1-hydroxypropan-2-yl]-6-[4-(trifluoromethoxy)phenyl]pyrimidine-4-carboxamide]
< 4.70	< 4.70	CC(C)(O)CNC(=O)c1cc(-c2ccc(OC(F)(F)F)cc2)nc(-c2cccc(F)c2)n1 [Example 7, 2-(3-Fluorophenyl)-N-(2-hydroxy-2-methylpropyl)-6-[4-(trifluoromethoxy)phenyl]pyrimidine-4-carboxamide]
< 4.70	< 4.70	CC(C)(O)CNC(=O)c1cc(-c2ccc(C(F)(F)F)cc2)nc(-c2cccc(F)c2)n1 [Example 8, 2-(3-Fluorophenyl)-N-(2-hydroxy-2-methylpropyl)-6-[4-(trifluoromethyl)phenyl]pyrimidine-4-carboxamide]
7.82	8.06	C[C@@H](CO)NC(=O)c1cc(-c2cccc(F)c2)nc(-c2ccc(C(F)(F)F)cc2)n1 [Example 9, 6-(3-Fluorophenyl)-N-[(2S)-1-hydroxypropan-2-yl]-2-[4-(trifluoromethyl)phenyl]pyrimidine-4-carboxamide]
	7.89	Cc1cccc(-c2nc(C(=O)NCC(C)(C)O)cc(-c3ccc(OC(F)(F)F)cc3)n2)c1 [Example 16, N-(2-hydroxy-2-methylpropyl)-2-(3-methylphenyl)-6-[4-(trifluoromethoxy)phenyl]pyrimidine-4-carboxamide]
	6.20	Cc1cc(-c2nc(C(=O)NCC(C)(C)O)cc(-c3ccc(OC(F)(F)F)cc3)n2)ccc1F [Example 17, 2-(4-fluoro-3-methylphenyl)-N-(2-hydroxy-2-methylpropyl)-6-[4-(trifluoromethoxy)phenyl]pyrimidine-4-carboxamide]
	6.56	CC(C)(O)CNC(=O)c1cc(-c2ccc(OC(F)(F)F)cc2)nc(-c2ccc(Cl)c(Cl)c2)n1 [Example 22, 2-(3,4-dichlorophenyl)-N-(2-hydroxy-2-methylpropyl)-6-[4-(trifluoromethoxy)phenyl]pyrimidine-4-carboxamide]
	7.55	CC(C)(O)CNC(=O)c1cc(-c2ccc(OC(F)(F)F)cc2)nc(-c2cc(F)cc(F)c2)n1 [Example 24, 2-(3,5-difluorophenyl)-N-(2-hydroxy-2-methylpropyl)-6-[4-(trifluoromethoxy)phenyl]pyrimidine-4-carboxamide]
	8.07	C[C@@H](CO)NC(=O)c1cc(-c2ccc(OC(F)(F)F)cc2)nc(-c2cccc(Cl)c2)n1 [Example 37, 2-(3-chlorophenyl)-N-[(2S)-1-hydroxypropan-2-yl]-6-[4-(trifluoromethoxy)phenyl]pyrimidine-4-carboxamide]
	7.91	C[C@@H](CO)NC(=O)c1cc(-c2ccc(OC(F)(F)F)cc2)nc(-c2cc(F)cc(F)c2)n1 [Example 39, 2-(3,5-difluorophenyl)-N-[(2S)-1-hydroxypropan-2-yl]-6-[4-(trifluoromethoxy)phenyl]pyrimidine-4-carboxamide]
	7.59	Cc1cccc(-c2nc(C(=O)NCC(C)(C)O)cc(-c3ccc(Cl)cc3)n2)c1 [Example 48, 6-(4-chlorophenyl)-N-(2-hydroxy-2-methylpropyl)-2-(3-methylphenyl)pyrimidine-4-carboxamide]
	6.39	Cc1cc(-c2nc(C(=O)NCC(C)(C)O)cc(-c3ccc(Cl)cc3)n2)ccc1F [Example 49, 6-(4-chlorophenyl)-2-(4-fluoro-3-methylphenyl)-N-(2-hydroxy-2-methylpropyl)pyrimidine-4-carboxamide]
	7.27	CC(C)(O)CNC(=O)c1cc(-c2ccc(Cl)cc2)nc(-c2ccc(F)c(Cl)c2)n1 [Example 50, 2-(3-chloro-4-fluorophenyl)-6-(4-chlorophenyl)-N-(2-hydroxy-2-methylpropyl)pyrimidine-4-carboxamide]
	6.04	Cc1cc(F)cc(-c2nc(C(=O)NCC(C)(C)O)cc(-c3ccc(Cl)cc3)n2)c1 [Example 60, 6-(4-chlorophenyl)-2-(3-fluoro-5-methylphenyl)-N-(2-hydroxy-2-methylpropyl)pyrimidine-4-carboxamide]
	7.87	C[C@@H](CO)NC(=O)c1cc(-c2ccc(Cl)cc2)nc(-c2cccc(Cl)c2)n1 [Example 71, 2-(3-chlorophenyl)-6-(4-chlorophenyl)-N-[(2S)-1-hydroxypropan-2-yl]pyrimidine-4-carboxamide]
	7.77	C[C@@H](CO)NC(=O)c1cc(-c2ccc(Cl)cc2)nc(-c2cc(F)cc(F)c2)n1 [Example 74, 6-(4-chlorophenyl)-2-(3,5-difluorophenyl)-N-[(2S)-1-hydroxypropan-2-yl]pyrimidine-4-carboxamide]
	7.89	O=C(NC(CO)C1CCC1)c1cc(-c2ccc(OC(F)(F)F)cc2)nc(-c2cccc(F)c2)n1 (centres unmarked) [Example 85, N-(1-cyclobutyl-2-hydroxyethyl)-2-(3-fluorophenyl)-6-[4-(trifluoromethoxy)phenyl]pyrimidine-4-carboxamide]
